Key:
[1] = tested on: mouse bone marrow-derived dendritic cell; test: Activation of mouse bone marrow-derived dendritic cell, cytokine/chemokine production (Test 4); assay type: cell-based; settings: 200 nmol/L, one day, compared with only DMSO
Protocol: Myeloid cells were collected from the femur and tibia of HLA-A*02:01 transgenic mouse (C57BL/6CrHLA-A2.1DR1), and then suspended in RPMI 1640 medium with 10% fetal bovine serum (FBS) and 10 ng/mL of GM-CSF. The dendritic cells in the myeloid cells were incubated at 37° C. under an atmosphere of 5% CO2 for induction of differentiation. Seven days after the incubation, the cells were collected. After observing the expression of CD11c on the cell surface by flow cytometry, the cells were cryopreserved. Cryopreserved mouse bone marrow-derived dendritic cells were reconstituted, suspended in RPMI 1640 medium with 10% FBS, and seeded on a U-bottom 96 well plate at 5×10^5 cells/well. The compound prepared in Example 3 was added in the presence of 0.1% (v/v) DMSO to the wells at a final concentration of 200 nmol/L. The plate was incubated at 37° C. under an atmosphere of 5% CO2. One day after the incubation, the culture supernatant was collected. The concentration of cytokine and chemokine (IL-1p, IL-6, IL-12p40, IL-12p70, IP-10, MIP-1α, MIP-1β, Rantes, and TNFα) which were included in each culture supernatant was measured with Milliplex Mouse Cytokine/Chemokine Magnetic Bead Panel kit (Millipore) and Luminex system in accordance with the manufacturer's protocol. […]

[2] = tested on: HLA-A*24:02 transgenic mouse; test: In vivo adjuvant activity, CTL induction with vaccine e, IFNγ ELISPOT (Test 16); settings: 0.4 nmol per body added to vaccine e versus no compound; twice
Protocol: The in vivo adjuvant activity of the compound of Example 2 was evaluated in the following procedure. To a vaccine prepared by mixing Peptide SEQ ID No. 18 prepared in Reference example 18 with Montanide ISA 51 VG (hereinafter, referred to as “vaccine e”) was added the compound prepared in Example 2 to prepare a vaccine. The vaccine was administered to a HLA-A*24:02 transgenic mouse, and the adjuvant activity of the vaccine was evaluated by the method of testing antigen-specific CTL induction. The TYAGCLSQIF in Peptide SEQ ID No. 18 corresponds to an antigen peptide derived from an HLA-A*24:02-restricted Or7c1 protein.
The character for inducing CTLs specific to the antigen peptide (SEQ ID No. 18) by vaccine e was evaluated by measuring whether IFNγ can be produced upon stimulation of splenocytes from the mouse with the peptide. In addition, the character for exerting in vivo adjuvant activity by the compound in Example 2 was evaluated by comparing the number of CTLs induced by vaccine e and the number of CTLs induced by the vaccine prepared by adding the compound prepared in Example 2 to vaccine e, and checking presence or absence of the increase on the number.
Specifically, Peptide of SEQ ID No. 18 was dissolved in DMSO, and then diluted with water for injection to concentrations of 3 mg/mL. […]

Structure (SMILES) | yield of cytokine and chemokine (IL-1β, IL-6, IL-12p40, IL-12p70, IP-10, MIP-1α, MIP-1β, Rantes, TNFα) [1] | CTL counts responsive to Peptide SEQ ID No. 18 [2]
CCCCOc1nc(N)c2[nH]c(=O)n(Cc3ccc(CN(C)CCOCCOCCOCCOCCO)cc3)c2n1 [Example 3, 6-amino-2-butoxy-9-{[4-(16-hydroxy-2-methyl-5,8,11,14-tetraoxa-2-azahexadecan-1-yl)phenyl]methyl}-7,9-dihydro-8H-purin-8-one] | higher | –
CCCCOc1nc(N)c2[nH]c(=O)n(Cc3ccc(CN(C)CCOCCOCCOCCOCCO)nc3)c2n1 [Example 2, 6-amino-2-butoxy-9-{[6-(16-hydroxy-2-methyl-5,8,11,14-tetraoxa-2-azahexadecan-1-yl)pyridin-3-yl]methyl}-7,9-dihydro-8H-purin-8-one-trifluoroacetate] | – | more

Source: patent US20220241409A1, “WATER SOLUBLE ADJUVANT AND COMPOSITION CONTAINING SAME” (Sumitomo Dainippon Pharma Co., Ltd., priority 2019, published 2022)
